Assays:
[1] = Metabolic stability in human liver microsomes assessed as intrinsic clearance; format: ADME, Microsome; conditions: read-out: CLH
[2] = Metabolic stability in human liver microsomes assessed as half life; format: ADME, Microsome
[3] = Cmax in Sprague-Dawley rat at 2 mg/kg, iv measured […] by LC-MS/MS analysis; format: ADME, organism-based; conditions: in vivo
[4] = AUC (0 to t) in Sprague-Dawley rat at 2 mg/kg, iv measured upto 60 mins by LC-MS/MS analysis; format: ADME, organism-based; conditions: in vivo
[5] = Cmax in Sprague-Dawley rat at 10 mg/kg, po measured […] by LC-MS/MS analysis; format: ADME, organism-based; conditions: in vivo
[6] = Tmax in Sprague-Dawley rat at 2 mg/kg, iv measured […] by LC-MS/MS analysis; format: ADME, organism-based; conditions: in vivo
[7] = Tmax in Sprague-Dawley rat at 10 mg/kg, po measured […] by LC-MS/MS analysis; format: ADME, organism-based; conditions: in vivo
[8] = AUC (0 to t) in Sprague-Dawley rat at 10 mg/kg, po measured upto 60 mins by LC-MS/MS analysis; format: ADME, organism-based; conditions: in vivo
[9] = Half life in Sprague-Dawley rat at 2 mg/kg, iv measured upto 60 mins by LC-MS/MS analysis; format: ADME, organism-based; conditions: in vivo
[10] = Oral bioavailability in Sprague-Dawley rat at 10 mg/kg measured […] by LC-MS/MS analysis; format: ADME, organism-based; conditions: in vivo

CLint scaled [1]	half-life [2]	Cmax [3]	AUC(0-t) at 1 h [4]	Cmax [5]	Tmax [6]	Tmax [7]	AUC(0-t) at 1 h [8]	half-life [9]	bioavailability [10]	Structure (SMILES)
41 mL/min/kg	30.4 min	–	–	–	–	–	–	–	–	O=C(Nc1ccc(C(F)(F)F)cc1)Nc1c[nH]c2ccc(F)cc12
6.4 mL/min/kg	139 min	842 ng/mL	536 ng·h/mL	37 ng/mL	6 min	252 min	125 ng·h/mL	48 min	4.6%	O=C(Nc1ccc(C(F)(F)F)cc1)Nc1c[nH]c2ccc(Cl)cc12
76.3 mL/min/kg	16.3 min	–	–	–	–	–	–	–	–	CC(C)(C)c1ccc(NC(=O)Nc2c[nH]c3ccc(F)cc23)cc1

Source: ChEMBL document CHEMBL6121057, “Discovery of an Orally Bioavailable STING Inhibitor with In Vivo Anti-Inflammatory Activity in Mice with STING-Mediated Inflammation” (J Med Chem, 2025)
